The text below walks through data of ChEMBL document CHEMBL1255178, “4-methylpteridinones as orally active and selective PI3K/mTOR dual inhibitors” (Bioorg Med Chem Lett, 2010).

Test [1] in a line: Antitumor activity against human U87 cells xenografted in mouse at 3 mg/kg, po after 10 days. In kind it is functional, U-87MG ATCC. On the technique in general: Xenograft models place foreign cells or tissue in a host animal.
Test [2] can be described thus: Antitumor activity against human U87 cells xenografted in mouse at 20 mg/kg, po after 10 days. In kind it is functional, U-87MG ATCC.
Test [3] is described as follows: Antitumor activity against human U87 cells xenografted in mouse at 10 mg/kg, po after 10 days. The format is functional, U-87MG ATCC.
Test [4] addresses Serine/threonine-protein kinase mTOR (Homo sapiens, UniProt P42345).

Regarding `COc1ccc(-c2nc3c(C)nc(N)nc3n([C@H]3CC[C@H](O)CC3)c2=O)cn1`, the Activity is 11% in test [1], 75% in test [2] and 58% in test [3]. Further, the Ki – broadly, a measure of affinity in units of concentration, obtained from inhibition or displacement – in test [4] stood at 6.8 nM. As to `Cc1ccc(-c2nc3c(C)nc(N)nc3n(C3CCOCC3)c2=O)cn1`, the affinity in test [4] corresponds to a Ki of 5 nM. As to `Cc1ccc(-c2nc3c(C)nc(N)nc3n([C@H]3CC[C@H](O)CC3)c2=O)cn1`, in test [4], the affinity corresponds to a Ki of 0.85 nM. Regarding `COc1ccc(-c2cc3c(C)nc(N)nc3n(C(C)C)c2=O)cn1`, in test [4], the affinity, expressed as Ki, was 5 nM. This Ki is about 5.9-fold higher than that of the molecule before. Take `COc1ccc(-c2cc3c(OC)nc(N)nc3n(C(C)C)c2=O)cn1`: the Ki in test [4] was > 4000 nM. Still for that read-out and setting: the result for `Cc1nc(N)nc2c1nc(-c1ccn[nH]1)c(=O)n2C(C)C` reads 6 nM. Turning to `Cc1nc(N)nc2c1nc(-c1cnn[nH]1)c(=O)n2C(C)C`, the Ki in test [4] stood at 113 nM. Consider `COc1ncc(-c2nc3c(C)nc(N)nc3n(C(C)C)c2=O)cn1`, for which, in test [4], the Ki was 18 nM. Molecule `Cc1ccc(-c2nc3c(C)nc(N)nc3n([C@H]3CC[C@H](OCCO)CC3)c2=O)cn1` yielded a Ki in test [4] of 5.11 nM. For `Cc1nc(N)nc2c1nc(-c1cc[nH]n1)c(=O)n2C1CCOCC1`, the inhibitory constant (Ki) in test [4] came to 0.8 nM.
